Experimental data reported in patent US4820722A, “Disubstituted tetrazoles and their use as leukotriene antagonists” (Eli Lilly and Company, priority 1987, dated 1989).

Biological target: T1, LTD4 responses of guinea pig ileum and trachea (Cavia porcellus, UniProt Q2NNR5)
T1 sequence (Q2NNR5 1-340): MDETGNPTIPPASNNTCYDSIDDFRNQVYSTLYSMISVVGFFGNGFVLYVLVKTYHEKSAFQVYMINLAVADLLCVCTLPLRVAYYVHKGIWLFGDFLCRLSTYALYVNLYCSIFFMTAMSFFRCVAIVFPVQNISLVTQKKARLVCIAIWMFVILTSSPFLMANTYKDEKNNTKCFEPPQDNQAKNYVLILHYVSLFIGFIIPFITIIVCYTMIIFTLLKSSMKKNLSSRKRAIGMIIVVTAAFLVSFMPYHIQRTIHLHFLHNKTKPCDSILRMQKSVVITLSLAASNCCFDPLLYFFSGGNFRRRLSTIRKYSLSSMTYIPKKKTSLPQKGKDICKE
Assay: LTD4 antagonism, cumulative LTD4 concentration-response curves in guinea pig ileum and trachea (KB by Furthgott method)
Format: cell-based, guinea pig (male Hartley)
Details: 30 minute incubation with antagonist, Table I title names ileal contractions

SMILES	pKB (negative log of the dissociation KB)
CCCc1c(COc2ccc(Cc3nnn(Cc4ccc(-c5nnn[nH]5)cc4)n3)cc2)ccc(C(C)=O)c1O [Example 38, 1-[2-Hydroxy-3-propyl-4-[[4-[[2-[[4-(1H-tetrazol-5-yl)phenyl]methyl]-2H-tetrazol-5-yl]methyl]phenoxy]methyl]phenyl]ethanone]	7.90
CCCc1c(COc2ccc(Cc3nnn(CCC(C)(C)Cc4nnn[nH]4)n3)cc2)ccc(C(C)=O)c1O [Example 28]	7.70
CCCc1c(COc2ccc(-c3nnn(CCCN(C)C)n3)cc2)ccc(C(C)=O)c1O [Example 37, 1-[4-[[4-[2-[3-(Dimethylamino)propyl]-2H-tetrazol-5-yl]phenoxy]methyl]-2-hydroxy-3-propylphenyl]ethanone]	6.37
CCCc1c(COc2ccc(-c3nnn(CCCc4nnn[nH]4)n3)cc2)ccc(C(C)=O)c1O [Example 36]	7.63
CCCc1c(COc2ccc(Cc3nnn(CCCCCCc4nnn[nH]4)n3)cc2)ccc(C(C)=O)c1O [Example 27, 1-[2-Hydroxy-3-propyl-4-[[4-[[2-[6-(1H-tetrazol-5-yl)hexyl]-2H-tetrazol-5-yl]methyl]phenoxy]methyl]phenyl]ethanone]	7.38
CCCc1c(COc2ccc(Cc3nnn(CCC[S+](C)[O-])n3)cc2)ccc(C(C)=O)c1O (stereo not shown) [Example 39, 5-[(4-((4-Acetyl-3-hydroxy-2-propylphenyl)methoxy)phenyl)methyl]-2-(3-methylsulfinylpropyl)-2H-tetrazole]	6.50
CCCc1c(COc2ccc(Cc3nnn(CCCS(C)(=O)=O)n3)cc2)ccc(C(C)=O)c1O [Example 40, 5-[(4-((4-Acetyl-3-hydroxy-2-propylphenyl)methoxy)phenyl)methyl]-2-(3-methylsulfonylpropyl)-2H-tetrazole]	6.37
CCCc1c(COc2ccc(Cc3nnnn3CCCN(C)C)cc2)ccc(C(C)=O)c1O [Example 16, 5-[(4-((4-Acetyl-3-hydroxy-2-propylphenyl)methoxy)phenyl)methyl]-1-(3-(dimethylamino)propyl)-1H-tetrazole]	6.01
CCCc1c(COc2ccc(Cc3nnn(CCCSC)n3)cc2)ccc(C(C)=O)c1O [Example 17, 5-[(4-((4-Acetyl-3-hydroxy-2-propylphenyl)methoxy)phenyl)methyl]-2-(3-methylthiopropyl)-2H-tetrazole]	6.45
CCCc1c(COc2ccc(Cc3nnn(CCCN(C)C)n3)cc2)ccc(C(C)=O)c1O [Example 15, 5-[(4-((4-Acetyl-3-hydroxy-2-propylphenyl)methoxy)phenyl)methyl]-2-(3-(dimethylamino)propyl)-2H-tetrazole]	6.65
CCCc1c(COc2ccc(Cc3nnn(CCCCCc4nnn[nH]4)n3)cc2)ccc(C(C)=O)c1O.[Na]	7.64

Tested on: LTD4 evoked contractions of guinea pig ileum
Assay: LTD4 antagonism on isolated guinea pig ileum (inhibition of LTD4 evoked ileal contractions, single submaximal LTD4 responses)
Format: cell-based, guinea pig (male Hartley)
Details: Cavia porcellus, 37° C., five minute exposure to drug, 2-4 concentrations, linear regression interpolation, read-out: -log IC50 (antagonist concentration that produced 50% inhibition of the LTD4 responses) (converted)
Method: Male, Hartley guinea pigs weighing 200-450 grams were killed by decapitation. A section of terminal ileum was removed, the lumen cleaned, and the tissue divided into 2.5 cm. segments. The ilea were mounted in 10 ml. tissue baths containing Krebs-bicarbonate solution of the following composition in mmoles/liter: KCl, 4.6; CaCl2 ·2H2 O, 1.2; KH2 PO4, 1.2; MgSO4 ·7H20, 1.2; NaCl, 118.2; NaHCO3, 24.8; and dextrose, 10.0. The bath fluid was maintained at 37° C. and aerated with 95 percent oxygen and 5 percent CO2. In addition, the buffer contained […] atropine to reduce ileal spontaneous activity. Isometric measurements were made with a Grass FTO3C force-displacement transducer and recorded on a Grass polygraph as change in grams of force. A passive force of 0.5 g. was applied to the tissues. After an appropriate equilibration period, single submaximal control responses to pure LTD4 were obtained. Following a five minute exposure of the ileum to an experimental drug, the control concentration of LTD4 was added to the tissue bath. The response of the ileum to LTD4 in the presence of the drug was compared to the response in the absence of the drug. Various degrees of LTD4 antagonism were obtained using 2-4 different concentrations of an experimental compound on a single ileum.

SMILES	IC50 [nM]
CCCc1c(COc2ccc(Cc3nnnn3Cc3nnn[nH]3)cc2)ccc(C(C)=O)c1O [Example 21]	17.4
CCCc1c(COc2ccc(Cc3nnnn3CCCCc3nnn[nH]3)cc2)ccc(C(C)=O)c1O [Example 25]	19.1
CCCc1c(COc2ccc(Cc3nnn(CCCC(=O)O)n3)cc2)ccc(C(C)=O)c1O [Example 33, 5-[(4-[(4-Acetyl-3-hydroxy-2-propylphenyl)methoxy]phenyl)methyl]-2H-tetrazole-2-butanoic acid]	20
CCCc1c(COc2ccc(Cc3nnn(Cc4nnn[nH]4)n3)cc2)ccc(C(C)=O)c1O [Example 22, 1-[2-hydroxy-3-(propyl)-4-[[4-[[2-(1H-tetra-zol-5-ylmethyl)-2H-tetrazol-5-yl]methyl]phenoxyl]methyl]phenyl]ethanone]	11.7
CCCc1c(COc2ccc(Cc3nnnn3CCCc3nnn[nH]3)cc2)ccc(C(C)=O)c1O [Example 23]	14.1
CCCc1c(COc2ccc(Cc3nnn(CCCCc4nnn[nH]4)n3)cc2)ccc(C(C)=O)c1O [Example 26, 1-[2-Hydroxy-3-propyl-4-[[4-[[2-[4-(1H-tetrazol-5-yl)butyl]tetrazol-5-yl]methyl]phenoxy]methyl]phenyl]ethanone]	8.13
CCCc1c(COc2ccc(Cc3nnn(CC(=O)O)n3)cc2)ccc(C(C)=O)c1O [Example 31, 5-[[4-[(4-Acetyl-3-hydroxy-2-propylphenyl)methoxy]phenyl]methyl]-2H-tetrazole-2-acetic acid]	28.2
CCCc1c(COc2ccc(Cc3nnn(CCCCC(=O)O)n3)cc2)ccc(C(C)=O)c1O [Example 35, 5-[(4-[(4-Acetyl-3-hydroxy-2-propylphenyl)methoxy]phenyl)methyl]-2H-tetrazole-2-valeric acid]	11.7
CCCc1c(COc2ccc(Cc3nnnn3CCCC(=O)O)cc2)ccc(C(C)=O)c1O [Example 32, 5-[[4-[[4-Acetyl-3-hydroxy-2-propylphenyl)methoxy]phenyl]methyl]-1H-tetrazole-1-butyric acid]	57.5
CCCc1c(COc2ccc(Cc3nnn(CCCc4nnn[nH]4)n3)cc2)ccc(C(C)=O)c1O [Example 24, 1-2[-Hydroxy-3-propyl-4[[4-[[2-[3-(1H-tetra-zol-5-yl)propyl]-2H-tetrazol-5-yl]methyl]phenoxy]methyl]phenyl]ethanone]	3.8
CCCc1c(COc2ccc(Cc3nnnn3CCCCC(=O)O)cc2)ccc(C(C)=O)c1O [Example 34, 5-[(4-[(4-Acetyl-3-hydroxy-2-propylphenyl)methoxy]phenyl)methyl]-1H-tetrazol-1-valeric acid]	55
